Common to all, as to assay: Kinase substrate phosphorylation (FIG. 9C)
What all share (type): biochemical
Common to all, as to details: 10 or 50 μM

For one test, the target named is Fyn (Homo sapiens, UniProt P06241). The method, then: (§1) Non-Jak3 mediated NfκB activation by TNF-α was not affected within the same treatment set (lower panel). […] Prolactin [PRL] (+) or (−) indicates whether the cells were stimulated with prolactin with Jak2 activation. Phosphotyrosine Western blots detect Jak2-Stat5 activation but no inhibition by 649641P (NC1153). […] 649641P (NC1153) was tested at 10 (open bars) or 50 μM (filled bars) to block growth factor tyrosine kinases (FGFR3 and PDGFRα), Src family tyrosine kinases (Src, Fyn, Lck, Yes, Zap70) or serine threonine kinases (PKC and PKA) phosphorylation of a substrate. The activity of the control is plotted as a dashed line.
Fyn, sequence (P06241 whole entry, species assumed): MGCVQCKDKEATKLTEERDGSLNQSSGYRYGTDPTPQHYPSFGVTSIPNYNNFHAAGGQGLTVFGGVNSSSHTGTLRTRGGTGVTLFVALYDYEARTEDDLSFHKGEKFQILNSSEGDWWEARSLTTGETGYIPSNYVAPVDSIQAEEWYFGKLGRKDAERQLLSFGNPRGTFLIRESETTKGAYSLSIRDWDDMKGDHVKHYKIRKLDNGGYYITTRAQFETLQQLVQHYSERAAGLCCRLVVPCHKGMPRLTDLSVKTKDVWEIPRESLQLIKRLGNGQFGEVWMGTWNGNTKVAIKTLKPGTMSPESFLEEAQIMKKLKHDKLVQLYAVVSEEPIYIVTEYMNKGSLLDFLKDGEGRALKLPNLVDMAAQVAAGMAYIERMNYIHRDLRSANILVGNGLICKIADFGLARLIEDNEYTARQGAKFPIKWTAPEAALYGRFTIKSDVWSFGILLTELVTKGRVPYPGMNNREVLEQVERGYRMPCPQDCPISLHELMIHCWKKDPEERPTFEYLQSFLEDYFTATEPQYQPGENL
(§2) In FIG. 9A, it can be seen that NC1153 inhibits Jak3 driven transcription factor-Stat5a/b in PHA activated T-cells treated with increasing concentrations of NC1153 in a dose dependent manner as measured via EMSA analysis (upper panel). The lane identified as “cold compete” contains unlabeled probe. However, non-Jak3 mediated NfκB activation (lower panel) by TNF-α was not affected within the same treatment set. […] Rat Nb2 cells were treated with increasing concentration of NC1153 and then stimulated with prolactin. Phosphotyrosine Western blots detect activation but no inhibition by NC1153. […] Activity of the control is plotted as a dashed line.

Another test deals with Src (Homo sapiens, UniProt P12931). Here is the method:
as §1, §2

Another test deals with Lck (Homo sapiens, UniProt P06239). Here is the method:
as §1, §2

In a further test the test system is PKC. The method, then:
as §1, §2

In a further test the target is FGFR3 (Homo sapiens, UniProt P22607). Here is the method: as §1, §2
FGFR3, sequence (P22607 23-806, species assumed): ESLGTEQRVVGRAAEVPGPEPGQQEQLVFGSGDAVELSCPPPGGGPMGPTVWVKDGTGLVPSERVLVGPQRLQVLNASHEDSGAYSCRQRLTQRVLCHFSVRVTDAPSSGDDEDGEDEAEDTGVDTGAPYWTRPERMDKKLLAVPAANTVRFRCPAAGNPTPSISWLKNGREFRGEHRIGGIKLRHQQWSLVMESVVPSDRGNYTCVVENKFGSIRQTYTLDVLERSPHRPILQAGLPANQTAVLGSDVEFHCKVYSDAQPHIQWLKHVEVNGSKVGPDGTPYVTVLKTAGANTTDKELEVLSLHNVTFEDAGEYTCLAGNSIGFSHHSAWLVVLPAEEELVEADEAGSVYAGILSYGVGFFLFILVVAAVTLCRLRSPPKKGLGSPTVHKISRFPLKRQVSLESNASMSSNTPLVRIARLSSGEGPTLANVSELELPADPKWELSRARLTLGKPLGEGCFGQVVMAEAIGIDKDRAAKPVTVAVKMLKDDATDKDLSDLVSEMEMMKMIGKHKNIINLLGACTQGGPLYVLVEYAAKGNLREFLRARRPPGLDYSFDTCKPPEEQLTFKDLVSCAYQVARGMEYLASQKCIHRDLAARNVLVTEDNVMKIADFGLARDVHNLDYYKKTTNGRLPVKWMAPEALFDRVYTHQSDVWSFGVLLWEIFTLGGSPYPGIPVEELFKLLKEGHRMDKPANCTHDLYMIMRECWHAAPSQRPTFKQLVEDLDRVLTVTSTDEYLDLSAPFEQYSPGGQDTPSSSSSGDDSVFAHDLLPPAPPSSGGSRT
The next test concerns the target PDGFRα (Homo sapiens, UniProt P16234). Here is the method:
as §1, §2

The test system of the next test is PKA. Here is the method: as §1, §2
For a further test, the target named is T1, Zap70 (Homo sapiens, UniProt P43403).
T1 sequence (P43403 1-619): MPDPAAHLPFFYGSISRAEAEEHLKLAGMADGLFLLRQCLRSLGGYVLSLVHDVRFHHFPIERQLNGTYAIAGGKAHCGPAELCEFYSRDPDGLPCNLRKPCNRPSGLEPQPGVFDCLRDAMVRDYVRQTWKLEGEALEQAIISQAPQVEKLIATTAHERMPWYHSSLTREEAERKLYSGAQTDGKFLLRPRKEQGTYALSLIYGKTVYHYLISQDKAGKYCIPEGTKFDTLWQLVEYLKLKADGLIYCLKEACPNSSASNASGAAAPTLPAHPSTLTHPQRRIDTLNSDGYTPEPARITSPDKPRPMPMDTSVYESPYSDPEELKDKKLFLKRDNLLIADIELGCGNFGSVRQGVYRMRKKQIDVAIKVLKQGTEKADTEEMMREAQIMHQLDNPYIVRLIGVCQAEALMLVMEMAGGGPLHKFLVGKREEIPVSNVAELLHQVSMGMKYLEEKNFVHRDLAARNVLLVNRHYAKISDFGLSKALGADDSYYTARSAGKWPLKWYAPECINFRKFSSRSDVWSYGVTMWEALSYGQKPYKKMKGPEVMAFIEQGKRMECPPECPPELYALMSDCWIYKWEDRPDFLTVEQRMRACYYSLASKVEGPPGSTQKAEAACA
The method, then: as §1, §2

The target in a further test is Yes (Homo sapiens, UniProt P07947). The method, then:
as §1, §2

The results in this text go back to patent US7365096B2, “Methods for selectively inhibiting Janus tyrosine kinase 3 (Jak3)” (Board of Regents, The University of Texas System, priority 2002, dated 2008).

Src, sequence (P12931 whole entry, species assumed): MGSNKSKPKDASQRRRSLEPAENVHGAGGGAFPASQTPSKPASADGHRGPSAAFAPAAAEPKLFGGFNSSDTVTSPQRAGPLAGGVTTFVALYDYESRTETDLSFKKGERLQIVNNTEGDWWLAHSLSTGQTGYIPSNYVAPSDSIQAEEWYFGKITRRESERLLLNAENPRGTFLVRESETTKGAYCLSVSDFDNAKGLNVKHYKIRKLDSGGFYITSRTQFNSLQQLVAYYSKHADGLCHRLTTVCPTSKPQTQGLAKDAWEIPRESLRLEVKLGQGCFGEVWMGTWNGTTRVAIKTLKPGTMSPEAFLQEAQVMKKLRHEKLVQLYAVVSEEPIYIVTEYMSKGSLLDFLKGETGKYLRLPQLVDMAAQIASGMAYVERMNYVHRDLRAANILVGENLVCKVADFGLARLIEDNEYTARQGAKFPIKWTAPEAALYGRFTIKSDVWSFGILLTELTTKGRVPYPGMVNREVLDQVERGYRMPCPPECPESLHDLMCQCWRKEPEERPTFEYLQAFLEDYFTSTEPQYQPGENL
Yes, sequence (P07947 whole entry, species assumed): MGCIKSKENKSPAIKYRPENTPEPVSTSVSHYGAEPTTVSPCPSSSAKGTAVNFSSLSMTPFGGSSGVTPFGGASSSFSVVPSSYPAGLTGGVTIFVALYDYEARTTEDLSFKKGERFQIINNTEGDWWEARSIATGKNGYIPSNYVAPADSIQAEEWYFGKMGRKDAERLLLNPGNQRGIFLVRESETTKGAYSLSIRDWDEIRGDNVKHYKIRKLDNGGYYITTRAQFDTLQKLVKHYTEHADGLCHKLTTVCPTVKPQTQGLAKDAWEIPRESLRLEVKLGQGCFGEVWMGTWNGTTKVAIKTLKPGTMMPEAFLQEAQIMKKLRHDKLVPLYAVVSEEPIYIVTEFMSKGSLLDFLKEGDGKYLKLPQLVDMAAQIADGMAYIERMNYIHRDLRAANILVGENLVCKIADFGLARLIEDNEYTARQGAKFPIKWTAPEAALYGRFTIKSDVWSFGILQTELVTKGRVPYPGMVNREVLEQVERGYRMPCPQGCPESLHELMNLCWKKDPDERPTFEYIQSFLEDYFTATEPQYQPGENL
PDGFRα, sequence (P16234 24-1089, species assumed): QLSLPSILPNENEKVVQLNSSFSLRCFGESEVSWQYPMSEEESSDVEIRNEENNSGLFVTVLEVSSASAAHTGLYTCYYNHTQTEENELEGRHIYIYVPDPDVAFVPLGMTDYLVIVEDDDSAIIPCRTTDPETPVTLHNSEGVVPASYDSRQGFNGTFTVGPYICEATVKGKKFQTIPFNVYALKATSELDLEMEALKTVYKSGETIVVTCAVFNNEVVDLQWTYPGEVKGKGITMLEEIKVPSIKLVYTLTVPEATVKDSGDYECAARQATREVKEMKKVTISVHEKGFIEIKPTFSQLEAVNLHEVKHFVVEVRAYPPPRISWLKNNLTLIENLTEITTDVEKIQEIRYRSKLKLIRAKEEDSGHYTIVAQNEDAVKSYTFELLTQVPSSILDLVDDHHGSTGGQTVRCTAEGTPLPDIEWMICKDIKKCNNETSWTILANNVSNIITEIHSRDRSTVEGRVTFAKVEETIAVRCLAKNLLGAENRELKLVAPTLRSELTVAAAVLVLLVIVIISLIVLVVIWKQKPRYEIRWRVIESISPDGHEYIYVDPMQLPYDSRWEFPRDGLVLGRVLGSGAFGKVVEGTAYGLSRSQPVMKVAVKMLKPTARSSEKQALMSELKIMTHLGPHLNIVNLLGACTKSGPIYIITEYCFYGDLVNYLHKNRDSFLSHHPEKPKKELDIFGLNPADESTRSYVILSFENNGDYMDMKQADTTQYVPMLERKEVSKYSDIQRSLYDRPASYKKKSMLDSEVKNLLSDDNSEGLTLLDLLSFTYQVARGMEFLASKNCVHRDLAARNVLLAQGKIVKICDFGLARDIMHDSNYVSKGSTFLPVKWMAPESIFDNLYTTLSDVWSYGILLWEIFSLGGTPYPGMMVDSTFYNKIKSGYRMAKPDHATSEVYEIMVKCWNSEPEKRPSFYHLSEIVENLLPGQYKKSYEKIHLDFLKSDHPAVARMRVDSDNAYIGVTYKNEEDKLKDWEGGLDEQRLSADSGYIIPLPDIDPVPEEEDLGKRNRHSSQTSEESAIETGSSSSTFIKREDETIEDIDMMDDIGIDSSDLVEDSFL
Lck, sequence (P06239 whole entry, species assumed): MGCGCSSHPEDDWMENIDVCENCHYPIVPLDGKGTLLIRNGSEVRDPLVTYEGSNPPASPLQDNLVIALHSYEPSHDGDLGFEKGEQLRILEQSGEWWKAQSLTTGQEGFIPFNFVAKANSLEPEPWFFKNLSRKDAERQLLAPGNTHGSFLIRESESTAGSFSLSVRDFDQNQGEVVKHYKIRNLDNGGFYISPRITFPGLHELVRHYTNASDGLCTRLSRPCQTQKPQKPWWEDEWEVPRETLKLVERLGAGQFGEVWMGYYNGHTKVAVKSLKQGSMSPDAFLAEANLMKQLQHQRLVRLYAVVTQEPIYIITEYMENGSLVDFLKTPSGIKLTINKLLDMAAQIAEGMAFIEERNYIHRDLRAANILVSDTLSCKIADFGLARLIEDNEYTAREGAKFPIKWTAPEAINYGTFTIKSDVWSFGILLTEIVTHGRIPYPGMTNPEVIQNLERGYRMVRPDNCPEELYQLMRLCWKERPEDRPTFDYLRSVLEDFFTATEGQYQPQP

For the molecule `CN(C)CC1CCCCCCCCCC(CN(C)C)C1=O` (mixture of isomers) [649641P (NC1153)], the entries for the “Fyn phosphorylation of a substrate” value at Fyn and at Fyn (listed as NC1153) were “fails to affect the activity” and “fails to affect activity”, respectively. In addition, the “Src phosphorylation of a substrate” value was “fails to affect the activity” at Src and “fails to affect activity” at Src (listed as NC1153). The “Lck phosphorylation of a substrate” value is “fails to affect the activity” on Lck and “fails to affect activity” at Lck (listed as NC1153). In addition, the figures for the “PKC phosphorylation of a substrate” value in the test with PKC and with PKC (listed as NC1153) were “fails to affect the activity” and “fails to affect activity”, respectively. Further, the “FGFR3 phosphorylation of a substrate” value is reported as “fails to affect the activity” on FGFR3 and “fails to affect activity” at FGFR3 (listed as NC1153). In addition, the “PDGFRα phosphorylation of a substrate” value is reported as “fails to affect the activity” on PDGFRα and “fails to affect activity” on PDGFRα (listed as NC1153). The “PKA phosphorylation of a substrate” value with PKA was “fails to affect the activity”; in the test with PKA (listed as NC1153), “fails to affect activity”. Moreover, the “Zap70 phosphorylation of a substrate” value at Zap70 is recorded as “fails to affect the activity”; on Zap70 (listed as NC1153) it was “fails to affect activity”. Further, the “Yes phosphorylation of a substrate” value at Yes is listed as “fails to affect the activity”; on Yes (listed as NC1153), “fails to affect activity”.
